Results published in patent publication US20260327232A1, “Heteroaryl Compounds as Ligand Directed Degraders of IRAK4” (Celgene Corporation, priority 2023, published 2026).
Where a name gives a salt, the structure may show the parent alone.

Key:
IRAK4 [1] = target: T1, IRAK4 (Homo sapiens, UniProt Q9NWZ3); experiment: IRAK4 PhosphoSens Biochemical Assay (BIOCHEM); settings: 200 μM ATP, 10 μM peptide substrate AQT0326, 1 nM IRAK4, room temperature, 240 minutes
T1 sequence (Q9NWZ3 1-460): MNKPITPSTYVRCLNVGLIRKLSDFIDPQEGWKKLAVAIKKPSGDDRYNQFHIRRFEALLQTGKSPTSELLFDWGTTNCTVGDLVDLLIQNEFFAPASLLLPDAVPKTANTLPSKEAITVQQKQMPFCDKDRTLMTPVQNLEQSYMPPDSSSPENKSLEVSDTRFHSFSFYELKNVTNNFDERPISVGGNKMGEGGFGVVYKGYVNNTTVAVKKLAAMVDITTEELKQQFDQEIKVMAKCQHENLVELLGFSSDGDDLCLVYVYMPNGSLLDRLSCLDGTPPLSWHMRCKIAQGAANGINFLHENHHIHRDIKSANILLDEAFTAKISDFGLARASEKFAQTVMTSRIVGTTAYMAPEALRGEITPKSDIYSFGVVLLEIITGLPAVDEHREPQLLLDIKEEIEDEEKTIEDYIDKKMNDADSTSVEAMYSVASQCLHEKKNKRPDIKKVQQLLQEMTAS
Method: The PhosphoSens® biochemical assay was performed as described by the vendor (AssayQuant Technologies Inc. Marlborough, MA). A 1.25× stock solution of IRAK4 (PV4002, ThermoFisher Scientific, Waltham, MA) and a 5× stock solution of ATP and Sox conjugated peptide substrate, AQT0326 (CSKS-AQT0326B, AssayQuant Technologies), were prepared in 1× kinase reaction buffer consisting of 50 mM HEPES, pH 7.5, 0.01% Brij-35, 0.5 mM EGTA, 20 mM MgCl2 and 1 mM DTT. 10 μL of the ATP and substrate solution mix, for a final concentration of 200 μM ATP and 10 μM peptide substrate, was added to a Coming 3574 384-well, white, non-binding surface microtiter plate containing 0.5 μL of serially diluted test compounds prepared in DMSO. The reactions were started with the addition of 40 μL of the enzyme solution, for a final IRAK4 concentration of 1 nM, and monitored every 71 seconds for 240 minutes at λEX 360/λEM 485 in a BioTek Synergy H4 plate reader (Agilent Technologies, Santa Clara, CA) at room temperature. The initial linear portions of the progress curves were fit according to a linear equation to yield the slopes and converted to % inhibition based on a value of 100% activity for the no inhibitor treated control. IC50 values of each compound were obtained by fitting the % inhibition-compound concentration curves using Dotmatics software (Dotmatics, Bishops Stortford, Hertfordshire, England).

IRAK4 [2] = target: T1, IRAK4; experiment: ALE THP1 HTRF (IRAK4 in THP1 cell lysates, Homogeneous Time Resolved Fluorescence); format: cell-based; design: THP1 Homogeneous Time Resolved Fluorescence (ALE THP1 HTRF) Procedure; endogenous in cells; host or cells: THP1; settings: THP1 cells
Method: Cell culture media was prepared in a tissue culture hood in a sterile environment by adding 10% FBS and 1% Penicillin Streptomycin to 500 mL no phenol red RPMI 1640 media. The media was filtered through a Nalgene Bottle Top Filter and stored at 4° C.
For Homogenous Time Resolved Fluorescence (HTRF) assays, a Cisbio HTRF kit was used, which included: Lysis Buffer #1 4×, Blocking Reagent #3 100×, 20× Antibody 1 (Anti-IRAK4 d2), 20× Antibody 2 (Anti-IRAK4 k), and Detection Buffer.
4× Lysis Buffer was stored at 4° C. For use as 1× Lysis buffer, the 4× solution was diluted with de-ionized water (distilled water, Gibco Cat. #15230279) and 100× Blocking Reagent in a 1:3:0.04 volume ratio.
20× Antibody Solution aliquots were stored in −80° C. and the Detection Buffer was stored in 4° C. For use as a 1× Antibody Solution, the 20× Antibody Solution aliquot was diluted with Detection Buffer in a 1:19 volume ratio.
Cells were lysed at room temperature for 45 min with shaking. A BCA protein assay was performed and normalization was conducted to the desired total protein concentration with 1× lysis buffer. Next, 1× Antibody Solutions were prepared by adding 380 μL Detection Buffer to 20 μL 20× Antibody Solution aliquots and mixing well. 1× Antibody Solutions were combined 1:1 and briefly vortexed. For control wells, 20 μL 1× anti IRAK4-k Antibody Solution was saved. The 384-well plate (ProxiPlate-384 Plus, Perkin Elmer Cat. #6008289) was loaded by adding 4 μL of the mixed Antibody Solution to empty wells using a single channel repeater. Using a multi-channel repeater, 16 μL lysate was added per well, and any bubbles that were formed were popped with 20 μL pipette tips and Kimwipe edges. In column 10, triplicates of each control was prepared. In wells A10, B10, and C10, buffer control was prepared by adding 16 μL Lysis Buffer and 4 μL Detection Buffer. In wells D10, E10, and F10, cryptate control was prepared by adding 16 μL Lysis Buffer, 2 μL Detection Buffer, and 2 μL 1× anti IRAK4-k Antibody Solution. In wells G10, H10, and 110, a negative control was prepared by adding 16 μL Lysis Buffer and 4 μL mixed Antibody Solution. The plate was sealed with a clear seal and covered with an aluminum lid. The plate was spun down at 800 g for 5 min and incubated in the dark at room temperature overnight. The next day, the plate was spun down at 800 g for 5 min. The samples were analyzed by a plate reader (Envision, PerkinElmer) using the Desnor 384 HTRF program.

IRAK4 [3] = target: T1, IRAK4; experiment: IRAK4 PhosphoSens Biochemical Assay (BIOCHEM); settings: 200 μM ATP, 10 μM peptide substrate AQT0326, 1 nM IRAK4, room temperature, 240 minutes; remark: listed apart in the source

Row | IC50 (IRAK4 [1]) [nM] | EC50 (IRAK4 [2]) [nM] | IC50 (IRAK4 [3]) [nM] | Compound
1 | < 0.5 | > 10000 |  | Cn1nc(C2CCC(=O)NC2=O)c2ccc(NC3CCN(CC4CCC(n5cc(NC(=O)c6cnn7ccc(N8CC[C@@H](F)[C@@H](N)C8)nc67)c(C(F)F)n5)CC4)CC3)cc21 (some centres unmarked) [P-21]
2 | 0.8 | > 10000 |  | CN(CC1CCC(n2cc(NC(=O)c3cnn4ccc(N5CC[C@H](C#N)C5)nc34)c(C(F)F)n2)CC1)C1CCN(c2ccc3c(C4CCC(=O)NC4=O)nn(C)c3c2)CC1 (some centres unmarked) [P-50]
3 | < 0.5 | 4 |  | Cn1nc(C2CCC(=O)NC2=O)c2ccc(NC3CCN(CC4CCC(n5cc(NC(=O)c6cnn7ccc(N8C[C@H](N)C[C@@H](F)C8)nc67)c(C(F)F)n5)CC4)CC3)cc21 (stereo partly drawn) [P-2, N-[3-(difluoromethyl)-1-[4-[[4-[[3-(2,6-dioxo-3-piperidyl)-1-methyl-indazol-6-yl]amino]-1-piperidyl]methyl]cyclohexyl]pyrazol-4-yl]-5-[(3R,5R)-3-amino-5-fluoro-1-piperidyl]pyrazolo[1,5-a]pyrimidine-3-carboxamide]
4 | < 0.5 | 8 |  | Cn1nc(C2CCC(=O)NC2=O)c2cccc(NC3CCN(CC4CCC(n5cc(NC(=O)c6cnn7ccc(N8C[C@H](N)C[C@@H](F)C8)nc67)c(C(F)F)n5)CC4)CC3)c21 (some centres unmarked) [P-3]
5 | < 0.5 | 1 |  | Cn1nc(C2CCC(=O)NC2=O)c2ccc(NC3CCN(CC4CCC(n5cc(NC(=O)c6cnn7ccc(N8CCOCC8)nc67)c(C(F)F)n5)CC4)CC3)cc21 (centres unmarked) [P-27, N-[3-(Difluoromethyl)-1-[4-[[4-[[3-(2,6-dioxo-3-piperidyl)-1-methyl-indazol-6-yl]amino]-1-piperidyl]methyl]cyclohexyl]pyrazol-4-yl]-5-morpholino-pyrazolo[1,5-a]pyrimidine-3-carboxamide formic acid salt]
6 | < 0.5 | 5 |  | CN(CC1CCC(n2cc(NC(=O)c3cnn4ccc(N5C[C@H](N)C[C@@H](F)C5)nc34)c(C(F)F)n2)CC1)C1CCN(c2ccc3c(C4CCC(=O)NC4=O)nn(C)c3c2)CC1 (some centres unmarked) [P-28, N-[3-(Difluoromethyl)-1-[4-[[[1-[3-(2,6-dioxo-3-piperidyl)-1-methyl-indazol-6-yl]-4-piperidyl]-methyl-amino]methyl]cyclohexyl]pyrazol-4-yl]-5-[(3r,5r)-3-amino-5-fluoro-1-piperidyl]pyrazolo[1,5-a]pyrimidine-3-carboxamide]
7 | < 0.5 | > 10000 |  | CN(CC1CCC(n2cc(NC(=O)c3cnn4ccc(N5C[C@H]6CC[C@@H](C5)O6)nc34)c(C(F)F)n2)CC1)C1CCN(c2ccc3c(C4CCC(=O)NC4=O)nn(C)c3c2)CC1 (some centres unmarked) [P-42]
8 |  | 12 | < 0.5 | Cn1nc(C2CCC(=O)NC2=O)c2cccc(NC3CCN(CCC4CCC(n5cc(NC(=O)c6cnn7ccc(N8C[C@H](N)C[C@@H](F)C8)nc67)c(C(F)F)n5)CC4)CC3)c21 (stereo partly drawn) [P-7, N-[3-(difluoromethyl)-1-[4-[2-[4-[[3-(2,6-dioxo-3-piperidyl)-1-methyl-indazol-7-yl]amino]-1-piperidyl]ethyl]cyclohexyl]pyrazol-4-yl]-5-[(3R,5R)-3-amino-5-fluoro-1-piperidyl]pyrazolo[1,5-a]pyrimidine-3-carboxamide bis-HCl salt]
9 |  | > 3000 | 0.8 | CN(C[C@H]1CC[C@H](n2cc(NC(=O)c3cnn4ccc(N5CC[C@H](c6ccn(C)n6)C5)nc34)c(C(F)F)n2)CC1)C1CCN(c2ccc3c(C4CCC(=O)NC4=O)nn(C)c3c2)CC1 (some centres unmarked) [P-46]
10 |  | 11 | < 0.5 | Cn1nc(C2CCC(=O)NC2=O)c2ccc(OC3CCN(C[C@H]4CC[C@H](n5cc(NC(=O)c6cnn7ccc(N8C[C@H](N)C[C@@H](F)C8)nc67)c(C(F)F)n5)CC4)CC3)cc21 (some centres unmarked) [P-26]
11 |  | 5 | < 0.5 | Cn1nc(C2CCC(=O)NC2=O)c2ccc(NC3CCN(C[C@H]4CC[C@H](n5cc(NC(=O)c6cnn7ccc(N8C[C@H](N)CC(F)(F)C8)nc67)c(C(F)F)n5)CC4)CC3)cc21 (some centres unmarked) [P-20]
12 |  | > 10000 | < 0.5 | CN(CC[C@H]1CC[C@H](n2cc(NC(=O)c3cnn4ccc(N5CCOCC5)nc34)c(C(F)F)n2)CC1)C1CCN(c2ccc3c(C4CCC(=O)NC4=O)nn(C)c3c2)CC1 (some centres unmarked) [P-38]
13 |  | 1 | < 0.5 | Cn1nc(C2CCC(=O)NC2=O)c2ccc(NC3CN(C[C@H]4CC[C@H](n5cc(NC(=O)c6cnn7ccc(N8C[C@H](N)C[C@@H](F)C8)nc67)c(C(F)F)n5)CC4)C3)cc21 (some centres unmarked) [P-13]
14 |  | > 10000 | 7.3 | CN(C[C@H]1CC[C@H](n2cc(NC(=O)c3cnn4ccc(NCc5ccccn5)nc34)c(C(F)F)n2)CC1)C1CCN(c2ccc3c(C4CCC(=O)NC4=O)nn(C)c3c2)CC1 (some centres unmarked) [P-44]
15 |  | 6 | < 0.5 | Cn1nc(C2CCC(=O)NC2=O)c2ccc(NC3CC4(C3)CN(CC3CCC(n5cc(NC(=O)c6cnn7ccc(N8C[C@H](N)C[C@@H](F)C8)nc67)c(C(F)F)n5)CC3)C4)cc21 (some centres unmarked) [P-12]
16 |  | > 10000 | < 0.5 | CN(C[C@H]1CC[C@H](n2cc(NC(=O)c3cnn4ccc(N5CCOCC5)nc34)c(C(F)F)n2)CC1)C1CCN(c2ccc3c(C4CCC(=O)NC4=O)nn(C)c3c2)CC1 (some centres unmarked) [P-29, N-[3-(Difluoromethyl)-1-[4-[[[1-[3-(2,6-dioxo-3-piperidyl)-1-methyl-indazol-6-yl]-4-piperidyl]-methyl-amino]methyl]cyclohexyl]pyrazol-4-yl]-5-morpholino-pyrazolo[1,5-a]pyrimidine-3-carboxamide]
17 |  | 5 | < 0.5 | Cn1nc(C2CCC(=O)NC2=O)c2ccc(N3CCC(NC[C@H]4CC[C@H](n5cc(NC(=O)c6cnn7ccc(N8C[C@H](N)C[C@@H](F)C8)nc67)c(C(F)F)n5)CC4)CC3)cc21 (stereo partly drawn) [P-5, 5-((3R,5R)-3-Amino-5-fluoropiperidin-1-yl)-N-(3-(difluoromethyl)-1-((1r,4r)-4-(((1-(3-(2,6-dioxopiperidin-3-yl)-1-methyl-1H-indazol-6-yl)piperidin-4-yl)amino)methyl)cyclohexyl)-1H-pyrazol-4-yl)pyrazolo[1,5-a]pyrimidine-3-carboxamide dihydrochloride]
18 |  | 4 | < 0.5 | Cn1nc(C2CCC(=O)NC2=O)c2ccc(N[C@H]3CCN(C[C@H]4CC[C@H](n5cc(NC(=O)c6cnn7ccc(N8C[C@H](N)C[C@@H](F)C8)nc67)c(C(F)F)n5)CC4)C[C@H]3F)cc21 (some centres unmarked) [P-23]
19 |  | 14 | < 0.5 | Cn1nc(C2CCC(=O)NC2=O)c2ccc(N3CCN(CC[C@H]4CC[C@H](n5cc(NC(=O)c6cnn7ccc(N8C[C@H](N)C[C@@H](F)C8)nc67)c(C(F)F)n5)CC4)CC3)cc21 (some centres unmarked) [P-10]
